Active and inactive are the calls of the source. No cut-off for these calls is given here.

The Ki is the equilibrium dissociation constant of an inhibitor or competing ligand from its target. As a reminder, the pKb is the Kb on a negative log10 scale, so that one unit is a factor of ten. Lower therefore signals a high Kb.

For test [1], the target named is T1, 5-hydroxytryptamine receptor 2A (Homo sapiens, UniProt P28223). Kind of test: Displacement of [3H]ketanserin from human 5-HT2A receptor expressed in HEK293 cells at 10 uM incubated for 1 hr relative to control. The test is classed as cell-based. In general terms: In a radioligand displacement assay an active substance lowers the binding of a labelled ligand.

Test [2] deals with T2, 5-hydroxytryptamine receptor 2B (Homo sapiens, UniProt P41595). Nature of the test: Displacement of [3H]-LSD from human 5-HT2B receptor expressed in HEK cells assessed as inhibition constant incubated for 1 hr. It counts as cell-based.
Test [3] addresses T3, 5-hydroxytryptamine receptor 2C (Homo sapiens, UniProt P28335).
T3 sequence (P28335 whole entry): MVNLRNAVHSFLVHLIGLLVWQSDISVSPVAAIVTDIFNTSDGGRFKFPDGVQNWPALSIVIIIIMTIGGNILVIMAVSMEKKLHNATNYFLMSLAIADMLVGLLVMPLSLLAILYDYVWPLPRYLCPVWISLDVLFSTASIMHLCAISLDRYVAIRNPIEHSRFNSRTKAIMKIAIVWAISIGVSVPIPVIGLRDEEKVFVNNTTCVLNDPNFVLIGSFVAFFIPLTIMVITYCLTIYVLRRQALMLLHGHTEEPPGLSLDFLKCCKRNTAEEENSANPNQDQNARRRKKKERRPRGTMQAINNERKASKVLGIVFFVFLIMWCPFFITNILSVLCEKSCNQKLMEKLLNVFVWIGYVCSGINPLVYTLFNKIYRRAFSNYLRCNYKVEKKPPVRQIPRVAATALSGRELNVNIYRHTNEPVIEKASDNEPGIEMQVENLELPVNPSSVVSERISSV
Nature of the test: Displacement of [3H]-Mesulergine from human 5-HT2C expressed in Flp-In-T-REx-293 cells assessed as inhibition constant incubated for 1 hr. It counts as cell-based. The following applies: read-out: Ki.

The next test has as its target T4, Adenosine receptor A1 (Homo sapiens, UniProt P30542).
T4 sequence (P30542 whole entry): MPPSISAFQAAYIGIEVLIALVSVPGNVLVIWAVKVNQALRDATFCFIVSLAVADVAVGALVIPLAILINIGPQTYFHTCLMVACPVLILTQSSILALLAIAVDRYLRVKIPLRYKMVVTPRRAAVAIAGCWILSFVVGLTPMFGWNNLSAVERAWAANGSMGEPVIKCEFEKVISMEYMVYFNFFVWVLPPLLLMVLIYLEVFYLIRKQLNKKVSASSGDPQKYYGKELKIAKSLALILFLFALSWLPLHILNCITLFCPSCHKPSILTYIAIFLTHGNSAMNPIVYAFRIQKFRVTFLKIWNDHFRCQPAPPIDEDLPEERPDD
Kind of test: Displacement of […] from human A1AR expressed in Flp-In-T-REx-293 cells assessed as inhibition constant. It counts as cell-based.

The target of test [4] is Adenosine receptor A2a (Homo sapiens) (UniProt P29274). Kind of test: Displacement of […] from human A2AR expressed in HEK cells at 10 uM relative to control. The test is classed as cell-based.
In test [5] the target is T5, Adenosine receptor A3 (Homo sapiens) (UniProt P0DMS8).
T5 sequence (whole entry): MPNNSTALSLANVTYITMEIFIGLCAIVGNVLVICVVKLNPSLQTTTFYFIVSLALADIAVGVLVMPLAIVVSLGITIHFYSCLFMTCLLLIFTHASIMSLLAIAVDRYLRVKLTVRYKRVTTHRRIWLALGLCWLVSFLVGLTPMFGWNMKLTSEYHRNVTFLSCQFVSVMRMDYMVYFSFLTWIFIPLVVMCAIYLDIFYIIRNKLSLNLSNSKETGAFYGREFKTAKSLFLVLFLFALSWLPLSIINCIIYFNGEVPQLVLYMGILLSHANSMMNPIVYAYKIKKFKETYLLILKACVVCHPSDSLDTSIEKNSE
Kind of test: Displacement of […] from human A3AR expressed in HEK cells at 10 uM relative to control. It counts as cell-based.

The next test is filed under the species Homo sapiens. Kind of test: Selectivity ratio of Kb for antagonist activity at human 5HT2B receptor to Kb for antagonist activity at human 5HT2C receptor.
In test [6] the target is T2, 5-hydroxytryptamine receptor 2B. Kind of test: Agonist activity at human 5HT2B receptor expressed in human Flp-In-293 cells assessed as Gq-mediated calcium flux measured for 60 mins by BRET assay. It counts as functional, cell-based. In general terms: A change in cytosolic calcium serves as a functional read-out for many receptors and channels.
Test [7] shares this target. Nature of the test: Agonist activity at human 5HT2B receptor expressed in human Flp-In-293 cells assessed as beta-arrestin1 recruitment measured for 60 mins by BRET assay. It counts as functional, cell-based. (In general: Recruitment of arrestin is a read-out of receptor activation apart from second messengers.)
Test [8] has the same target. Nature of the test: Agonist activity at human 5HT2B receptor expressed in human Flp-In-293 cells assessed as beta-arrestin2 recruitment measured for 60 mins by BRET assay. The test is classed as functional, cell-based.
For test [9] the target is unchanged. The following applies: Flp-In-T-REx-293, filed as antagonist, time 1.0 hrs.
Test [10] has as its target T6, 5-hydroxytryptamine receptor 2C (Homo sapiens) (UniProt P28335).
T6 sequence (whole entry): T3 sequence (P28335 whole entry)
The following applies: Flp-In-T-REx-293, filed as antagonist, time 1.0 hrs.

Test [11] concerns the target T1, 5-hydroxytryptamine receptor 2A. The following applies: Flp-In-T-REx-293, time 1.0 hrs.
The target is the same in test [12]. Kind of test: Binding affinity to 5HT2A receptor (unknown origin) at 10 uM relative to control.
Test [13] concerns the target T2, 5-hydroxytryptamine receptor 2B. Nature of the test: Binding affinity to 5HT2B receptor (unknown origin) assessed as inhibition constant.
Test [14] concerns the target T6, 5-hydroxytryptamine receptor 2C (Homo sapiens). Kind of test: Binding affinity to 5HT2C receptor (unknown origin) at 10 uM relative to control. The following applies: filed as antagonist.
The next test deals with T7, Adenosine receptor A3 (Homo sapiens, UniProt P0DMS8).
T7 sequence (P0DMS8 whole entry): T5 sequence (whole entry)
Kind of test: Displacement of […] from human A3AR expressed in HEK cells assessed as inhibition constant. It counts as cell-based.

Test [15] addresses T8, Alpha-2B adrenergic receptor (Homo sapiens, UniProt P18089).
T8 sequence (P18089 whole entry): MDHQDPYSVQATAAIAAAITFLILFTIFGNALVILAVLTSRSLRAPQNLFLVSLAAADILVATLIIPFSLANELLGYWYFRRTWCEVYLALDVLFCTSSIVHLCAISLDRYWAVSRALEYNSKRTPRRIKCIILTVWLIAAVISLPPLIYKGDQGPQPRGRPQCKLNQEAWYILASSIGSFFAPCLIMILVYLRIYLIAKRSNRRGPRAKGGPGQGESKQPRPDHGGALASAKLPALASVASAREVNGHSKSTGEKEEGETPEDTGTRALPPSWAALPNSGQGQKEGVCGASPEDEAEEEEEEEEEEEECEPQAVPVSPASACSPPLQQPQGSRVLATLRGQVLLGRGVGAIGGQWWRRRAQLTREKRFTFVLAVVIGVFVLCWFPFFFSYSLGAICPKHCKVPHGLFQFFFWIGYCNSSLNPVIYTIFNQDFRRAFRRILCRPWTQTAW
Kind of test: Binding affinity to alpha2B receptor (unknown origin) assessed as inhibition constant.

Test [16] concerns the target T6, 5-hydroxytryptamine receptor 2C (Homo sapiens). Nature of the test: Displacement of [3H]-Mesulergine from human 5-HT2C expressed in Flp-In-T-REx-293 cells at 10 uM incubated for 1 hr relative to control. It counts as cell-based.
The target of the next test is Mu-type opioid receptor (Homo sapiens, UniProt P35372). Nature of the test: Binding affinity to MOR (unknown origin) assessed as inhibition constant.
For test [17], the target named is T2, 5-hydroxytryptamine receptor 2B. Nature of the test: Displacement of [3H]-LSD from human 5-HT2B receptor expressed in HEK cells at 10 uM incubated for 1 hr relative to control. It counts as cell-based.
For test [18], the target named is T9, Adenosine receptor A1 (Homo sapiens) (UniProt P30542).
T9 sequence (whole entry): T4 sequence (P30542 whole entry)
Nature of the test: Displacement of […] from human A1AR expressed in Flp-In-T-REx-293 cells at 1 uM relative to control. The following applies: filed as agonist. The test is classed as cell-based.

Test [19] addresses T2, 5-hydroxytryptamine receptor 2B. Nature of the test: Binding affinity to 5HT2B receptor (unknown origin) at 10 uM relative to control. The following applies: filed as antagonist.
In test [20] the target is 5-hydroxytryptamine receptor 1D (Homo sapiens, UniProt P28221). Nature of the test: Binding affinity to 5HT1D receptor (unknown origin) assessed as inhibition constant.
Chain of 5-hydroxytryptamine receptor 1D (P28221 whole entry): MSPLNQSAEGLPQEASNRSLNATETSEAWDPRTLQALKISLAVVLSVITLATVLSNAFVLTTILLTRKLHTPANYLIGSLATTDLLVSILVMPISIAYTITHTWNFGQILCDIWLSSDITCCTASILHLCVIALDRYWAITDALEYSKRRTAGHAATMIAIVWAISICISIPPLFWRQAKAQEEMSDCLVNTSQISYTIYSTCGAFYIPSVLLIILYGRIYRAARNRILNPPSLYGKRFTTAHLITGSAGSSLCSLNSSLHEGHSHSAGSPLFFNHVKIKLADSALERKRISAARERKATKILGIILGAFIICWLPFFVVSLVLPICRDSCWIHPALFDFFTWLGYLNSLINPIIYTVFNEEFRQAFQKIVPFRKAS

T1 sequence (P28223 whole entry): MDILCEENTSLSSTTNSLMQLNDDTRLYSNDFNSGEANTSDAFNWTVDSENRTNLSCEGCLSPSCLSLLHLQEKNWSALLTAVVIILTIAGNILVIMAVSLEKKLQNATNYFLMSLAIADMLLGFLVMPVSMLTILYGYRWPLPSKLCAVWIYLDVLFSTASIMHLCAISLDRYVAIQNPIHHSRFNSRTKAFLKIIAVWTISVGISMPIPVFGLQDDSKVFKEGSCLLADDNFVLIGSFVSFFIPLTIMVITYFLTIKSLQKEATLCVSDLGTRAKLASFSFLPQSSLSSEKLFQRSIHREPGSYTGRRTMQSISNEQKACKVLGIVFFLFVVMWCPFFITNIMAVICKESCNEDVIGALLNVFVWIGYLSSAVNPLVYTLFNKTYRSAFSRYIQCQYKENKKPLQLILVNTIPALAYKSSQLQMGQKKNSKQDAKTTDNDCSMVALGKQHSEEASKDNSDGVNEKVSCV
T2 sequence (P41595 whole entry): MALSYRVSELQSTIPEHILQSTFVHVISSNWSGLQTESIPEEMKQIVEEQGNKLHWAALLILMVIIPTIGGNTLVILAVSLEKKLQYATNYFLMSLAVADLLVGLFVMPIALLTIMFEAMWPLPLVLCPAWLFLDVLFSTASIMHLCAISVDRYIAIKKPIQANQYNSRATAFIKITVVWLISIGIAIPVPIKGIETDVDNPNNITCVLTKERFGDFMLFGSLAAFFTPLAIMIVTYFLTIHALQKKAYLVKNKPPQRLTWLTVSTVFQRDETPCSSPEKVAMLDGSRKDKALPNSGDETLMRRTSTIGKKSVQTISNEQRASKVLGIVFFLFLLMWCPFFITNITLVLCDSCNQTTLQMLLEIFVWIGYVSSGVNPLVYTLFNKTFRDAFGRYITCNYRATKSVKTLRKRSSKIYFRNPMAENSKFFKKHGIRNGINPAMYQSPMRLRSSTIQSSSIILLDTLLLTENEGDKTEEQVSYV
Chain of Adenosine receptor A2a (Homo sapiens) (P29274 whole entry): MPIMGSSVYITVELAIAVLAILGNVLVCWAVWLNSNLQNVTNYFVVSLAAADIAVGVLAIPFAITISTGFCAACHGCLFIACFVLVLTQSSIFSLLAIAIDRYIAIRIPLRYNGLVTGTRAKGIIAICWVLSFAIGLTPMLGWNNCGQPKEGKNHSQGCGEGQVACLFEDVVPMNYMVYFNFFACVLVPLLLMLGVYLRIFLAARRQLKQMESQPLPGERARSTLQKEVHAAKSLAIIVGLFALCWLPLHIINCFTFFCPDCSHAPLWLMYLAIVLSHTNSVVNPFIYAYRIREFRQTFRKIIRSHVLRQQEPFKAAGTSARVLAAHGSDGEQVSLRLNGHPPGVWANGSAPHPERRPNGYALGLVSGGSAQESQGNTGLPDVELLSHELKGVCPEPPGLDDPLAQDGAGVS
Chain of Mu-type opioid receptor (P35372 whole entry): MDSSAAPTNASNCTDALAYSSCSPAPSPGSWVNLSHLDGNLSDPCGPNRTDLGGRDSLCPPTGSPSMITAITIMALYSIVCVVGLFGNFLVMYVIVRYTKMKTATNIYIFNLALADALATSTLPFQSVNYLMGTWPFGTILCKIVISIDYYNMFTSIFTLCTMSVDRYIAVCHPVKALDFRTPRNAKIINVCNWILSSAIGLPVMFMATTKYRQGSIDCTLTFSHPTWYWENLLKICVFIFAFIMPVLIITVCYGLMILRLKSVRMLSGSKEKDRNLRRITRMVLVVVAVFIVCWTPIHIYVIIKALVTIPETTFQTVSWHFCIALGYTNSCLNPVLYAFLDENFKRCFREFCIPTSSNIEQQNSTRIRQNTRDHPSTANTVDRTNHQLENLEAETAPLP

For the compound `CCOC(=O)[C@@]12C[C@@H]1[C@@H](n1cnc3c(N[C@H](C4CCC4)C4CC4)nc(I)nc31)[C@H](O)[C@@H]2O`, the figures for the Activity in [1], in test [4] and in test [5] (filed as agonist) were 13%, 15% and 83%, respectively. Moreover, the Ki was 33 nM in [2], 331 nM in [3] and 2180 nM on Adenosine receptor A1. The Ratio in the test filed under Homo sapiens is 44.7. Moreover, the outcome in test [6], in [7] and in test [8] was inactive. The negative logarithm of the Kb (pKb) in [9] is 8.76; in [10], 7.11; in test [11], under 5.

For `CNC(=O)[C@]12C[C@@H]1[C@@H](n1cnc3c(NC4CCCC4)nc(Cl)nc31)[C@H](O)[C@@H]2O`, the Activity was found to be 0% in test [12] and 44% in [14]. For the same compound, the Ki in test [13] worked out at 78.2 nM.

Regarding `CSC[C@@]12C[C@@H]1[C@@H](n1cnc3c(NC(C4CCCC4)C4CCCC4)nc(Cl)nc31)[C@H](O)[C@@H]2O`, the values for the Activity in test [1] (filed as antagonist) and in test [4] were 47% and -12%, respectively. For the same compound, the Ki was 481 nM in [3], 5270 nM on Adenosine receptor A3 and 1700 nM in test [15].

`O[C@H]1[C@H](n2cnc3c(NC(C4CCCC4)C4CCCC4)nc(Cl)nc32)[C@H]2C[C@@]2(CSc2ccccc2F)[C@H]1O`: the Activity in test [1] was 36%; in [16], 37%; in test [4], -10%; in [5], 1%. Besides, the Ki in test [2] is 640 nM; on Mu-type opioid receptor, 4900 nM.

For the compound `Clc1nc(NCC2CC2)c2nc[nH]c2n1`, the Activity worked out at 29% in test [17] and 49% in [18].

`OC[C@H]1O[C@@H](n2cnc3c(NC(C4CCC4)C4CCC4)nc(Cl)nc32)[C@H](O)[C@@H]1O`: the figures for the Activity in [12] and in test [19] were 31% and 47%, respectively.

Turning to `O[C@H]1[C@H](n2cnc3c(NC(C4CCCCC4)C4CCCCC4)nc(Cl)nc32)[C@H]2C[C@@]2(CF)[C@H]1O`, the inhibitory constant (Ki) in test [3] came out at 163 nM; on Adenosine receptor A3 it was 5040 nM; in [20], 5500 nM; in test [15], 3600 nM. For the same compound, the Activity in [4] was -27%.
